Measured values taken from US10597314B2, “Fatty acid biodispersant and methods of use” (General Electric Company, priority 2013, dated 2020).

Tests used:
biofilms = test: Applicant's testing of the amount of cis-2-decenoic acid needed for sufficient activity; assay type: cell-based; details: relative to the Article's 1.0 nM to 10 mM
Excerpt: An article titled A Fatty Acid Messenger Is Responsible for Inducing Dispersion in Microbial Biofilms, published in March 2009 in the Journal of Bacteriology (“Article”) is incorporated by reference herein in its entirety. The Article discloses that cis-2-decenoic acid may be used to disperse biofilms.

Microbial Biofilms = details: as stated in the Article; cited from earlier work

SMILES | actual amount needed for sufficient activity (biofilms) | amount needed for activity (biofilm dispersion) (Microbial Biofilms)
CCCCCCC/C=C\C(=O)O [cis-2-decenoic acid] | several times more than that | 
CCCCCCC/C=C/C(=O)O [trans-2-decenoic acid] |  | in the mM range
